Results on nine molecules are retold here after PubChem BioAssay (NCI).

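Method: 48-hour compound exposure of cells in 96-well plates, five concentrations, linear interpolation of endpoints. TGI marks complete inhibition of growth.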 Where only a bound is given, the exact number is not on record here.

What all share (assay): NCI anticancer screen, dose series, 48 h
Experiment [1] deals with SNB-19 CNS.
Experiment [2] has as its system MOLT-4 leukemia.
For experiment [3], the system named is NCI-H23 lung.
In experiment [4] the test system is K-562 leukemia.
The test system of experiment [5] is OVCAR-5 ovarian.
The subject of experiment [6] is SF-295 CNS.
The subject of experiment [7] is A549 NSCLC.
The subject of experiment [8] is HCC-2998 colon.
The test system of experiment [9] is SK-OV-3 ovarian.
The test system of experiment [10] is M14 melanoma.
Experiment [11] relates to NCI-H522 lung.
The subject of experiment [12] is UACC-62 melanoma.
The test system of experiment [13] is HOP-92 NSCLC.
Experiment [14] deals with SK-MEL-5 melanoma.
Experiment [15] relates to MDA-MB-231 breast.
In experiment [16] the test system is DU-145 prostate.
Experiment [17] relates to T-47D breast.

In the case of `CC(C)C(=O)/C=C/c1ccc(Cl)cc1`, the TGI is 28.1 µM in [1]; 55.9 µM in experiment [2]; 44.7 µM in experiment [3]; 15.6 µM in [4]; 35.4 µM in experiment [5]; 27.8 µM in experiment [6]. Moreover, the TGI in experiment [7] was 59.7 µM; in experiment [8], 31.9 µM; in experiment [9] it was over 100 µM; in [10], 33 µM; in experiment [11], 30.4 µM; in experiment [12] it was 36.4 µM. The TGI in [13] was 31.6 µM; in experiment [14] it was 21.7 µM.
`CCN1CC2=C(NC(=S)NC2c2cc(OC)c(OC)c(OC)c2)/C(=C/c2cc(OC)c(OC)c(OC)c2)C1` (centres undefined): the TGI in experiment [1] was over 100 µM; in experiment [2] it was over 100 µM; in experiment [3] it was over 100 µM; in [4] it was 66.3 µM; in experiment [5] it was over 100 µM; in experiment [6], over 100 µM. Besides, the TGI in [7] is over 100 µM; in [8], 88.8 µM; in experiment [9] it was over 100 µM; in experiment [10], over 100 µM; in [11], 55.9 µM; in [12], over 100 µM. Also, the TGI was over 100 µM in [15], 60.4 µM in experiment [13], 40.1 µM in [14] and over 100 µM in experiment [16].
For the molecule `CC(C)[Si](OC1=C(C(=O)N(C)c2ccccc2Cl)CCC1)(C(C)C)C(C)C`, the TGI in experiment [1] is 30 µM; in [2], over 100 µM; in experiment [3], 29.8 µM; in [5] it was 21.6 µM; in [6], 27.6 µM; in experiment [7], 32.1 µM. In addition, the TGI in experiment [9] is 32.8 µM; in [10], 35.7 µM; in [11], 28.6 µM; in [15] it was 30.9 µM; in [17] it was 47.1 µM; in experiment [13], 32.7 µM. Also, the TGI in [14] amounted to 41.2 µM; in experiment [16], 44.3 µM.
Turning to `CN(C)CC(CO)(CN(C)C)CN(C)C`, the TGI in experiment [1], in [2], in [3], in experiment [4], in experiment [5] and in experiment [6] was over 100 µM throughout. Further, the TGI in [7], in experiment [9], in experiment [10], in experiment [11], in [12] and in experiment [13] was over 100 µM in each case. The TGI in experiment [14] and in experiment [16] was over 100 µM in each case.
With `COc1ccc(C(C2C(=O)N(C)C(=O)N(C)C2=O)C(F)(F)C(=O)N(C)C)cc1` (centres undefined), the TGI in [1], in [3], in experiment [5], in experiment [6], in experiment [7] and in experiment [8] was over 100 µM each time. For the same molecule, the TGI in experiment [9], in [10], in experiment [12], in experiment [15], in experiment [17] and in experiment [13] was over 100 µM throughout. The TGI in experiment [14] and in [16] was over 100 µM throughout.
With `COC(=O)N/N=C/c1oc(-c2ccccc2)c(-c2ccccc2)c1[N+](=O)[O-]`, the TGI in [1], in experiment [2], in experiment [3], in experiment [4], in experiment [5] and in [6] was over 100 µM throughout. The TGI in experiment [7], in experiment [8], in [9], in experiment [10], in experiment [11] and in experiment [12] was over 100 µM throughout. The TGI in experiment [13] and in experiment [14] was over 100 µM in each case.
Consider `CC1(C)C2CCC3(OCCO3)C1C1OC12` (centres undefined), for which the TGI in [1], in experiment [2], in [3], in [4], in experiment [5] and in experiment [6] was over 100 µM in each case. Besides, the TGI in experiment [7], in experiment [9], in [10], in [11], in [13] and in experiment [14] was over 100 µM throughout.
On to `C=C(C)[C@@]1(O)CCC[C@H]1NC(=O)OC(C)(C)C`, for which the TGI in [1], in experiment [3], in experiment [5], in experiment [6], in experiment [7] and in experiment [8] was over 100 µM in each case. Also, the TGI in experiment [9], in experiment [10], in [11], in [15], in [17] and in experiment [13] was over 100 µM throughout. Further, the TGI in experiment [14] and in experiment [16] was over 100 µM throughout.
Take `COc1ccc([N-]/C(=N\n2c(=O)c(C)nn(C)c2=S)N(c2ccc(OC)cc2)c2nn3c(=O)c(C)n[n+](C)c3s2)cc1`: the TGI in experiment [1], in [2], in experiment [3], in experiment [4], in experiment [5] and in experiment [6] was over 100 µM throughout. The TGI in experiment [7], in experiment [10], in experiment [11], in experiment [12], in experiment [13] and in [14] was over 100 µM throughout.
